In assay [1] the target is T1, Aβ-ABAD PPI (Homo sapiens, UniProt Q99714).
T1 construct: wildtype human SH-SY5Y cell lines, which are known to express ABAD; endogenous in cells; host or cells: SH-SY5Y
T1 sequence (Q99714 2-261 limits assumed): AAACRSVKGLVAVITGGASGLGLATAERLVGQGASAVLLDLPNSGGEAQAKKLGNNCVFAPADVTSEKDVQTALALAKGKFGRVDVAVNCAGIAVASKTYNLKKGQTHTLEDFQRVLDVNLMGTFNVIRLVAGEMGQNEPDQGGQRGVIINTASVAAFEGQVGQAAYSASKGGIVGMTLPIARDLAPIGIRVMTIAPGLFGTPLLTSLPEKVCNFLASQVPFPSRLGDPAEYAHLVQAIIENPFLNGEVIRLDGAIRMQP
The experiment in a line: Estradiol ELISA assay: rescue of Aβ-induced reduction of estradiol levels in SH-SY5Y cells. Type of assay: cell-based. Particulars: compounds 24 hours then Aβ 72 hours. The procedure:
Cell Culture. The cell line SH-SY5Y was cultured in DMEM/F12 media supplemented with 10% fetal bovine serum, 1% penicillin-streptomycin and maintained as monolayer cultures in a humidified atmosphere containing 5% CO2 at 37° C.^42 All cell lines were authenticated via short tandem repeat analysis and tested for mycoplasma using the a commercial mycoplasma detection kit as per the manufacturer's instructions, showing no contamination. Where indicated, cells were also cultured in DMEM/low glucose media. All compounds were diluted to 20 mM solution in DMSO and were serially diluted in cell culture media for cell treatments to a final concentration range of 0.01 to 100 μM, maintaining the final DMSO concentration at less than 1%. Positive control compound HupA was serially diluted in a similar fashion as the synthesized compounds.
Amyloid Preparation. The peptide Aβ1-42, referred to as “Aβ”, was obtained from a commercial source. The oligomers of Aβ were prepared using an established method,^43 Aβ peptide was resuspended in 0.5 mM NaOH at a concentration of […] and stored at −80° C. For use in cell cultures, the stock solution was incubated at 37° C. for 5-7 days. Before use, the peptide was diluted to 25 μM in DMEM/low glucose media.
Estradiol ELISA assay. SH-SY5Y cells were treated with compounds (24 hours), followed by Aβ (72 hours) in a similar fashion to that employed in the cell viability assays, the cell culture medium was collected, and cells were lysed using RIPA buffer and protease inhibitor cocktail, then proteins were quantified via BCA assay. An estradiol assay was performed. In brief, the plate was loaded with samples, along with the estradiol tracer and the specific antiserum to estradiol and incubated for one hour at room temperature. After five washing steps, Ellman's Reagent was added, and the plate developed for 60 minutes with gentle shaking at room temperature. The calculated estradiol concentration was normalized to the total protein content of the samples.
Statistical Analyses. The IC50 values of each compound were acquired from a single experiment with each inhibitor concentration run in triplicate and the statistical significance was calculated using the Student t test, or a one-way or two-way ANOVA. A P value of <0.05 was considered statistically significant. IC50 values were calculated.
To determine the effect of Aβ on estradiol production, and ABAD's role in this process, wildtype human SH-SY5Y cell lines, which are known to express ABAD, were incubated for 72 hours with Aβ.^20 Estradiol levels in the cell lysate were measured with a commercial ELISA-based estradiol assay. […] To determine if AG18051 treatment affects Aβ-induced reduction of estradiol levels, 0.1 or 1 μM AG18051 was preincubated in SH-SY5Y cells for 24 hours prior to Aβ exposure. […] AG18051 at 1 μM protected SH-SY5Y cells from Aβ-induced reduction of estradiol production to a greater significance than HupA. This confirms literature reports that AG18051 is neuroprotective and that it exerts this effect by ameliorating Aβ-induced reduction of estradiol production by ABAD.^20, 23
This assay methodology allows direct screening of compound activity in the presence of Aβ and provides direct evidence of the ability of compounds to rescue Aβ-induced reduction of estradiol production by ABAD. To measure the effect of AG18051 alone in SH-SY5Y cell lines, a 0.01-100 μM dose-response range was tested, and their effect on estradiol levels (FIG. 2B). […] To evaluate the effect of the increase of AG18051 dose in maintaining estradiol levels reduced by Aβ, AG18051 was tested in increasing concentrations in the presence of Aβ (FIG. 2B).
On the technique in general: ELISA stands for enzyme-linked immunosorbent assay.

For assay [2], the system named is SH-SY5Y cells. The assay is described as follows: Aβ-induced toxicity in SH-SY5Y cells, MTS assay. Type of assay: cell-based, human. Conditions: 1 μM. (Formazan colour is commonly taken as a measure of viable cells.)
In assay [3] the test system is SH-SY5Y cells. The assay is described as follows: Mitochondrial Stress Test in Aβ-treated SH-SY5Y cells (extracellular flux analyzer). Type of assay: cell-based, human.

“Also recorded” adds a separate entry of the source. Read-outs that look alike come from different tables or passages of the source.

For orientation: IC50 means the point on the concentration scale where inhibition reaches its midpoint.

Turning to `O=C(C(c1ccccc1)n1cnc2[nH]ncc2c1=S)N1CCC(O)CC1` (stereo not shown) [Compound 14b, 1-(4-hydroxypiperidin-1-yl)-2-phenyl-2-(4-thioxo-1,4-dihydro-5H-pyrazolo[3,4-d]pyrimidin-5-yl)ethan-1-one], the IC50 was found to be 0.74 µM in assay [1] (amelioration of Aβ-induced reduction of estradiol levels, read-out: IC50 (estradiol assay)) and 0.738 ± 0.105 µM in assay [1] (read-out: IC50 (estradiol assay), unit inferred). The “rescue of Aβ-induced reduction of cell viability (MTS assay)” value in assay [2] is “significantly rescued”. The “protection of cell viability (MTS assay)” value in assay [2] (pretreated 24 hrs, then 25 μM Aβ 48 hrs) is 82%. In addition, in assay [3] (1 μM pretreatment 24 hrs, then 25 μM Aβ 48 hrs), the “basal respiration: restored share of the cell respiration reduced by Aβ” value is reported as 46%. In assay [3] (1 μM pretreatment, then 25 μM Aβ), the “proton leak, ATP production and maximal respiration: restoration of mitochondrial function lost by Aβ” value is listed as “trend to restore; also recorded: trend to rescue”. In assay [3] (SH-SY5Y cells), the “basal respiration, rescue of Aβ-mediated dysfunction” value is “significantly rescuing”.

Values taken from patent publication US20250101026A1, “Functionalized Allopurinol Derivatives for Treatment of Alzheimer’s Disease” (BOARD OF REGENTS OF THE UNIVERSITY OF NEBRASKA, priority 2022, published 2025).
